Key:
Assay type in all cases: in vivo
[1] = test system: Amaranthus retoflexus (AMARE); assay: Post-emergence herbicidal test; conditions: 1000 g/ha unless otherwise stated, evaluated after 13 days
Method in brief: (§1)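 Scored 0–5 for percent damage (0=0%, 5=81-100%) 13 days after spraying, typically at 1000 g/ha in acetone/water (50:50) plus 0.5% Tween 20. Post-emergence plants treated at 8 days old, grown at 24° C/16° C day/night, 14 h light, 65% humidity, watered twice daily.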

[2] = test system: Ipomoea hederacea (IPOHE); assay: Post-emergence herbicidal test; conditions: 1000 g/ha unless otherwise stated, evaluated after 13 days
Method in brief: as §1

[3] = test system: Abutilon theophrasti (ABUTH); assay: Post-emergence herbicidal test; conditions: 1000 g/ha unless otherwise stated, evaluated after 13 days
Method in brief: as §1

Zea mays (ZEAMX) [4] = assay: Post-emergence herbicidal test; conditions: 1000 g/ha unless otherwise stated, evaluated after 13 days
Method in brief: as §1

[5] = test system: Echinochloa crus-galli (ECHCG); assay: Post-emergence herbicidal test; conditions: 1000 g/ha unless otherwise stated, evaluated after 13 days
Method in brief: as §1

Setaria faberi (SETFA) [6] = assay: Post-emergence herbicidal test; conditions: 1000 g/ha unless otherwise stated, evaluated after 13 days
Method in brief: as §1

Setaria faberi (SETFA) [7] = assay: Pre-emergence herbicidal test; conditions: 1000 g/ha, evaluated after 13 days
Zea mays (ZEAMX) [8] = assay: Pre-emergence herbicidal test; conditions: 1000 g/ha, evaluated after 13 days
[9] = test system: Amaranthus retoflexus (AMARE); assay: Pre-emergence herbicidal test; conditions: 1000 g/ha, evaluated after 13 days
[10] = test system: Ipomoea hederacea (IPOHE); assay: Pre-emergence herbicidal test; conditions: 1000 g/ha, evaluated after 13 days
[11] = test system: Echinochloa crus-galli (ECHCG); assay: Pre-emergence herbicidal test; conditions: 1000 g/ha, evaluated after 13 days
[12] = test system: Abutilon theophrasti (ABUTH); assay: Pre-emergence herbicidal test; conditions: 1000 g/ha, evaluated after 13 days

Structure (SMILES) | percentage damage caused to the plant, AMARE (five-point scale) [1] | percentage damage caused to the plant, IPOHE (five-point scale) [2] | percentage damage caused to the plant, ABUTH (five-point scale) [3] | percentage damage caused to the plant, ZEAMX (five-point scale) (Zea mays (ZEAMX) [4]) | percentage damage caused to the plant, ECHCG (five-point scale) [5] | percentage damage caused to the plant, SETFA (five-point scale) (Setaria faberi (SETFA) [6]) | percentage damage caused to the plant, five-point scale, SETFA (Setaria faberi (SETFA) [7]) | percentage damage caused to the plant, five-point scale, ZEAMX (Zea mays (ZEAMX) [8]) | percentage damage caused to the plant, five-point scale, AMARE [9] | percentage damage caused to the plant, five-point scale, IPOHE [10] | percentage damage caused to the plant, five-point scale, ECHCG [11] | percentage damage caused to the plant, five-point scale, ABUTH [12]
COC(C)(C)CCOC(=O)c1nn(-c2ccc(OC(F)(F)F)cc2)c2cccc(S(C)(=O)=O)c2c1=O [Compound P85, (3-methoxy-3-methyl-butyl) 5-methysulfonyl-4-oxo-1-[4-(trifluoromethoxy)phenyl]cinnoline-3-carboxylate] | 1 (1=10-20%) | 0 (0=0%) | 1 (1=10-20%) | 1 (1=10-20%) | 3 (3=41-60%) | 4 (4=61-80%) | 4 (4=61-80%) | 0 (0=0%) | 0 (0=0%) | 0 (0=0%) | 4 (4=61-80%) | 0 (0=0%)
CCCCCOC(=O)c1nn(-c2ccc(OC(F)(F)F)cc2)c2cccc(S(C)(=O)=O)c2c1=O [Compound P75, penyl 5-methylsulfonyl-4-oxo-1-[4-(trifluoromethoxy)phenyl]cinnoline-3-carboxylate] | 0 (0=0%) | 0 (0=0%) | 0 (0=0%) | 0 (0=0%) | 3 (3=41-60%) | 4 (4=61-80%) | 4 (4=61-80%) | 1 (1=10-20%) | 0 (0=0%) | 0 (0=0%) | 4 (4=61-80%) | 0 (0=0%)
CCOC(=O)c1nn(-c2ccc(Cl)cc2Cl)c2cccc(S(C)(=O)=O)c2c1=O [Compound P44, ethyl 1-(2,4-dichlorophenyl)-5-methylsulfonyl-4-oxo-cinnoline-3-carboxylate] | 1 (1=10-20%) | 1 (1=10-20%) | 1 (1=10-20%) | 1 (1=10-20%) | 4 (4=61-80%) | 4 (4=61-80%) | 4 (4=61-80%) | 0 (0=0%) | 1 (1=10-20%) | 0 (0=0%) | 2 (2=21-40%) | 0 (0=0%)
CS(=O)(=O)c1cccc2c1c(=O)c(C(=O)OCCC1CCCCC1)nn2-c1ccc(OC(F)(F)F)cc1 [Compound P87, 2-cyclohexylethyl 5-methylsulfonyl-4-oxo-1-[4-(trifluoromethoxy)phenyl]cinnoline-3-carboxylate] | 1 (1=10-20%) | 0 (0=0%) | 1 (1=10-20%) | 0 (0=0%) | 1 (1=10-20%) | 1 (1=10-20%) | 3 (3=41-60%) | 1 (1=10-20%) | 0 (0=0%) | 1 (1=10-20%) | 1 (1=10-20%) | 1 (1=10-20%)
CCOC(=O)c1nn(-c2ccc(OC(F)(F)F)cc2)c2cccc([S+]([O-])CC)c2c1=O (stereo not drawn) [Compound P24, ethyl 5-ethylsulfinyl-4-oxo-1-[4-(trifluoromethoxy)phenyl]cinnoline-3-carboxylate] | 1 (1=10-20%) | 0 (0=0%) | 1 (1=10-20%) | 1 (1=10-20%) | 1 (1=10-20%) | 0 (0=0%) | 0 (0=0%) | 0 (0=0%) | 0 (0=0%) | 0 (0=0%) | 0 (0=0%) | 0 (0=0%)
CS(=O)(=O)c1cccc2c1c(=O)c(C(=O)OCC(F)F)nn2-c1ccc(OC(F)(F)F)cc1 [Compound P67, 2,2-difluoroethyl 5-methylsulfonyl-4-oxo-1-[4-(trifluoromethoxy)phenyl]cinnoline-3-carboxylate] | 1 (1=10-20%) | 1 (1=10-20%) | 1 (1=10-20%) | 1 (1=10-20%) | 3 (3=41-60%) | 4 (4=61-80%) | 5 (5=81-100%) | 2 (2=21-40%) | 0 (0=0%) | 0 (0=0%) | 4 (4=61-80%) | 0 (0=0%)
CCOC(=O)c1nn(-c2ccc(OC(F)(F)F)cc2)c2ccc(C#N)c(S(C)(=O)=O)c2c1=O [Compound P47, ethyl 6-cyano-5-methylsulfonyl-4-oxo-1-[4-(trifluoromethoxy)phenyl]cinnoline-3-carboxylate] | 0 (0=0%) | 0 (0=0%) | 0 (0=0%) | 0 (0=0%) | 1 (1=10-20%) | 1 (1=10-20%) | 0 (0=0%) | 0 (0=0%) | 0 (0=0%) | 0 (0=0%) | 0 (0=0%) | 0 (0=0%)
CCCCCCOC(=O)c1nn(-c2ccc(OC(F)(F)F)cc2)c2cccc(S(C)(=O)=O)c2c1=O [Compound P59, hexyl 5-methylsulfonyl-4-oxo-1-[4-(trifluoromethoxy)phenyl]cinoline-3-carboxylate] | 1 (1=10-20%) | 3 (3=41-60%) | 1 (1=10-20%) | 2 (2=21-40%) | 4 (4=61-80%) | 4 (4=61-80%) | 4 (4=61-80%) | 3 (3=41-60%) | 2 (2=21-40%) | 2 (2=21-40%) | 3 (3=41-60%) | 3 (3=41-60%)
